The values that follow come from ChEMBL document CHEMBL4261605, “Discovery of a novel series of pyridine and pyrimidine carboxamides as potent and selective covalent inhibitors of Btk” (Bioorg Med Chem Lett, 2018).

Data set [1] has as its target T1, Tyrosine-protein kinase BTK (Homo sapiens, UniProt Q06187). The experiment in a line: Inhibition of recombinant human full length N-terminal GST-tagged BTK (2 to 659 residues) expressed in baculovirus expression system using FITC-AHA-EEPLYWSFPAKKK-NH2 substrate measured after 90 mins by off-chip mobility shift assay.
Data set [2] deals with T1, Tyrosine-protein kinase BTK. The experiment in a line: Inhibition of BTK in goat anti-human IgM F(ab')2-stimulated human PBMC assessed as suppression of BCR-induced CD69 expression on B cells pretreated for 1 hr followed by blood stimulation measured after overnight incubation by flow cytometry. The class given is cell-based. In general terms: In flow cytometry, cells or beads pass a laser one at a time.

Data set [3] is described as follows: Permeability across apical to basolateral side in human Caco2 cells. The following applies: Caco-2.
The nature of data set [4]: Efflux ratio of permeability in human Caco2 cells. The following applies: Caco-2. On the technique in general: Passage across Caco-2 layers is used to estimate intestinal permeability.
Data set [5] is described as follows: Half life in mouse at 0.5 mg/kg, po. The following applies: in vivo. It is filed as ADME, organism-based.
Data set [6] is described as follows: AUC in mouse at 0.5 mg/kg, po. Particulars: in vivo. The class given is ADME, organism-based.
The target in a further data set is Cytochrome P450 2C9 (Homo sapiens, UniProt P11712). The experiment in a line: Inhibition of CYP2C9 (unknown origin). It is filed as ADME.
Sequence of Cytochrome P450 2C9 (P11712 whole entry): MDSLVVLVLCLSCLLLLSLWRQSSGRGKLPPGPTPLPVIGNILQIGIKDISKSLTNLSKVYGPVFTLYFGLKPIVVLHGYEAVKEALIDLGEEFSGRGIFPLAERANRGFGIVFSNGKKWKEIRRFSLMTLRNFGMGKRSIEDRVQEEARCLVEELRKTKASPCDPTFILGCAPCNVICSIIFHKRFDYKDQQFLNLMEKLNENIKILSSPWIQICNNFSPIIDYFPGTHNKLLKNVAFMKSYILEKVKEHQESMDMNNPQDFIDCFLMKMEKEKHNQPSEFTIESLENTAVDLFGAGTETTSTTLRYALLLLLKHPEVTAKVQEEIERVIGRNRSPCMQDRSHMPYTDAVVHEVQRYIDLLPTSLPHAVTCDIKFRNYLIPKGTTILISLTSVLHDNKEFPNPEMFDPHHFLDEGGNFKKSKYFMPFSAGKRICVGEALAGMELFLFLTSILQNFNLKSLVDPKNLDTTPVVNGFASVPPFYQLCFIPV
The target in another data set is T2, Cytochrome P450 2B6 (Homo sapiens, UniProt P20813).
T2 sequence (P20813 whole entry): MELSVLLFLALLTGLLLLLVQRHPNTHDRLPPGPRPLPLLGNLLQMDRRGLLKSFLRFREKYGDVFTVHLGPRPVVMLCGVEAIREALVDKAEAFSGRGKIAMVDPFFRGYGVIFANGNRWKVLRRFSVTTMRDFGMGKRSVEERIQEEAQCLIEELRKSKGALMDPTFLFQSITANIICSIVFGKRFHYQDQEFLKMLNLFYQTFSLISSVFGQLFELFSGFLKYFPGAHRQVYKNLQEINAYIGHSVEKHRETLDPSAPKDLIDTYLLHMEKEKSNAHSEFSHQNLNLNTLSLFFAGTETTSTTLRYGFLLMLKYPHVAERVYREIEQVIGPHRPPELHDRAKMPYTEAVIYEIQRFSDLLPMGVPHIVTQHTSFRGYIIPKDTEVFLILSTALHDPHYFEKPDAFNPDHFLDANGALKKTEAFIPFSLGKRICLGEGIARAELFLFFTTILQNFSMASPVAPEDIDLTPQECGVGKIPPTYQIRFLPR
Kind of data set: Inhibition of CYP2B6 (unknown origin). It is filed as ADME.

In a further data set the target is Cytochrome P450 2C19 (Homo sapiens, UniProt P33261). The experiment in a line: Inhibition of CYP2C19 (unknown origin). It is filed as ADME.
Sequence of Cytochrome P450 2C19 (P33261 whole entry): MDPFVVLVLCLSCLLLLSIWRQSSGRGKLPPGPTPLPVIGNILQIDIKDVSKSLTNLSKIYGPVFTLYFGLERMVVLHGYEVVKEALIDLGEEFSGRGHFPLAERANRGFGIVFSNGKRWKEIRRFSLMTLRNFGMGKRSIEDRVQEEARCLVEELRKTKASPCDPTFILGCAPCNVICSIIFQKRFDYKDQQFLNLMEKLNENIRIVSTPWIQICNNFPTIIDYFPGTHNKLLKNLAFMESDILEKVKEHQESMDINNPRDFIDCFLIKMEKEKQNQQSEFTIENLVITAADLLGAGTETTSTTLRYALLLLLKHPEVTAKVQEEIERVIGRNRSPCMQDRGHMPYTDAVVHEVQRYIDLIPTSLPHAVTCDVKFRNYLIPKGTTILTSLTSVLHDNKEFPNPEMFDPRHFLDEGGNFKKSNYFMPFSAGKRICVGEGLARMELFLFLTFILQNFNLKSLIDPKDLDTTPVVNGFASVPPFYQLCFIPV
The next data set concerns the target T3, Cytochrome P450 2C8 (Homo sapiens, UniProt P10632).
T3 sequence (P10632 whole entry): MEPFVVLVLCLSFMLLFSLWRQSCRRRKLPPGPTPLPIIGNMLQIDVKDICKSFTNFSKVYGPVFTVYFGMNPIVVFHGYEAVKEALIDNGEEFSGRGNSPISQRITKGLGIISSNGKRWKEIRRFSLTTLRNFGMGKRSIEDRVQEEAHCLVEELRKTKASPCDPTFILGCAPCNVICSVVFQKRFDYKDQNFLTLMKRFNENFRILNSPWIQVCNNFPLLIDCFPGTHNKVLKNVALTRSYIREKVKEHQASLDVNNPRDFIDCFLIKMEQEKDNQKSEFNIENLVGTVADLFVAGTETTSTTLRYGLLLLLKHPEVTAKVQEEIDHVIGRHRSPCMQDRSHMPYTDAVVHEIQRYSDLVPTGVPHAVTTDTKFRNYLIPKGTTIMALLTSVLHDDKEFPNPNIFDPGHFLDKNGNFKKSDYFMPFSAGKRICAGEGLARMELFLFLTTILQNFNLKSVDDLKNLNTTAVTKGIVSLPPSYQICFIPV
The experiment in a line: Inhibition of CYP2C8 (unknown origin). The class given is ADME.

In the next data set the target is Cytochrome P450 3A4 (Homo sapiens, UniProt P08684). The experiment in a line: Inhibition of CYP3A4 (unknown origin). It is filed as ADME.
Sequence of Cytochrome P450 3A4 (P08684 whole entry, the tested form may be a part): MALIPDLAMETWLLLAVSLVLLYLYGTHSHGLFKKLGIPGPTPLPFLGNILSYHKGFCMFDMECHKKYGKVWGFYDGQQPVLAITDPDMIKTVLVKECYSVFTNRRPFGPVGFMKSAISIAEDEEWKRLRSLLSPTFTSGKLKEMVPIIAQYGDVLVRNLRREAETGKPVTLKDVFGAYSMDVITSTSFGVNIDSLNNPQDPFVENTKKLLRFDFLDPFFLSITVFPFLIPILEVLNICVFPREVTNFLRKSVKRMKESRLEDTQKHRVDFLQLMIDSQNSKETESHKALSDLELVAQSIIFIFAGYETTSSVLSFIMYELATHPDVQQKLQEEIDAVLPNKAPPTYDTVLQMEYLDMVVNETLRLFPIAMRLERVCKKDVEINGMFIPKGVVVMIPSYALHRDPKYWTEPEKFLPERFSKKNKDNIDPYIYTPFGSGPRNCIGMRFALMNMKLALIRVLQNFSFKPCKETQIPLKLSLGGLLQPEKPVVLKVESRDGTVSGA
Data set [7] addresses T1, Tyrosine-protein kinase BTK. Kind of data set: Inhibition of recombinant human full length N-terminal GST-tagged BTK (2 to 659 residues) expressed in baculovirus expression system at 100 uM using FITC-AHA-EEPLYWSFPAKKK-NH2 substrate measured after 90 mins by off-chip mobility shift assay relative to control.

T1 sequence (Q06187 whole entry, the tested form may be a part): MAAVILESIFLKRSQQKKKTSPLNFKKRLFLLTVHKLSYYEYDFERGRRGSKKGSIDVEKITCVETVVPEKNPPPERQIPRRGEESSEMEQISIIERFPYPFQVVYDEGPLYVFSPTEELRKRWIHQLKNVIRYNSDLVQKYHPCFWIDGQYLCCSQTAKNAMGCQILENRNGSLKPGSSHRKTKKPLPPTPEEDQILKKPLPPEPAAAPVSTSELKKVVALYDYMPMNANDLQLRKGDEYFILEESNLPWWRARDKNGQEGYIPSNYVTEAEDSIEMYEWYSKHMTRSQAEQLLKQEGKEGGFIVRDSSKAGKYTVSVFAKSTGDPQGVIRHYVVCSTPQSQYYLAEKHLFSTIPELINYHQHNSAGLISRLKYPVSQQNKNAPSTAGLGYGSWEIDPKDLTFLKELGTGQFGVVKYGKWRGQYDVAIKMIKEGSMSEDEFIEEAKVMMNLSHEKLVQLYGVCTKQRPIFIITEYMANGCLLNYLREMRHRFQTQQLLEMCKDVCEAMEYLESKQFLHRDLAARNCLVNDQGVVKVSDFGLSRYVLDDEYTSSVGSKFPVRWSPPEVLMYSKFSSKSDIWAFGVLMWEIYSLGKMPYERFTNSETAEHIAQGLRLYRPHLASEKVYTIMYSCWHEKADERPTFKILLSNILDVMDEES

Regarding `C=CC(=O)N1CCN(c2ccc(C(N)=O)c(Nc3ccc(CCN4CCCC4)cc3)n2)CC1`, the results for the IC50 in data set [1] and in data set [2] were 0.3 nM and 4.3 nM, respectively.

In the case of `C=CC(=O)N[C@H]1CCCN(c2ccc(C(N)=O)c(Nc3ccc(C(=O)N4CCOCC4)cc3)n2)C1`, the IC50 in [1] amounted to 16 nM.

In the case of `C=CC(=O)N1C[C@H]2C[C@@H]1CN2c1ccc(C(N)=O)c(Nc2ccc(C)nc2)n1`, the IC50 stood at 0.1 nM in data set [1] and 1.4 nM in data set [2].

With `C=CC(=O)N[C@H]1CCN(c2ncc(C(N)=O)c(Nc3ccc(C(=O)N4CC(C)OC(C)C4)cc3)n2)C1` (some centres undefined), the IC50 in data set [1] stood at 1.1 nM; in data set [2] it was 44 nM.

On to `C=CC(=O)N[C@H]1CCN(c2ncc(C(N)=O)c(N)n2)C1`, for which the IC50 in [1] turned out to be 180 nM.

With `C=CC(=O)N(C)[C@H]1CCN(c2ccc(C(N)=O)c(Nc3ccc(CCN4CCCC4)cc3)n2)C1`, the IC50 came to 1.3 nM in [1] and 41 nM in [2]. In addition, the Papp A→B in data set [3] was found to be 0.07 ×10⁻⁶ cm/s. Also, the efflux ratio in data set [4] came to 266.

As to `C=CC(=O)N[C@@H]1CN(c2ccc(C(N)=O)c(Nc3ccc(CCN4CCCC4)cc3)n2)CC12CC2`, the IC50 in [1] stood at 0.09 nM; in [2] it was 4.9 nM. The compound also had a Papp A→B in [3] of 0.02 ×10⁻⁶ cm/s. In addition, the efflux ratio in data set [4] is 822.

Turning to `NC(=O)c1ccc(N2CC[C@H](N)C2)nc1Nc1ccc(C(=O)N2CCOCC2)cc1`, in data set [1], the IC50 was 1600 nM.

Compound `C=CC(=O)N1CCC[C@@H](n2nc(-c3ccc(Oc4ccccc4)cc3)c3c(N)ncnc32)C1` [IBRUTINIB] showed a half-life in data set [5] of 30 min. The AUC in data set [6] came out at 26 ng·h/mL. Moreover, the INH on Cytochrome P450 2C9 amounted to 8.5 µM; at Cytochrome P450 2B6 it was 11.1 µM; on Cytochrome P450 2C19 it was 19 µM; at Cytochrome P450 2C8 it was 7.9 µM; at Cytochrome P450 3A4 it was 11 µM.

In the case of `C=CC(=O)N[C@H]1CCN(c2nc(Nc3ccc(N4C[C@@H](C)O[C@@H](C)C4)cc3)c(C(N)=O)cc2F)C1`, the IC50 in data set [1] turned out to be 1.6 nM; in data set [2], 14 nM.

In the case of `C=CC(=O)N[C@@H]1CCN(c2ncc(C(N)=O)c(N)n2)C1`, in data set [1], the IC50 came to 500 nM.

As to `C=CC(=O)N[C@H]1CCN(c2ncc(C(N)=O)c(Nc3ccc(F)cc3)n2)C1`, the IC50 in data set [1] was 8 nM.

Regarding `C=CC(=O)N[C@H]1CCN(c2ccc(C(N)=O)c(Nc3ccc(CCN4CCCC4)cc3)n2)C1`, the results for the IC50 in [1] and in data set [2] were 1.9 nM and 7 nM, respectively.

Regarding `C=CC(=O)N[C@H]1CCN(c2ncc(C(N)=O)c(Nc3ccc(C(=O)N4CCOCC4)cc3)n2)C1`, the IC50 in data set [1] amounted to 0.5 nM.

With `C=CC(=O)N[C@H]1CCN(c2ccc(C(N)=O)c(Nc3ccc(N4C[C@@H](C)O[C@@H](C)C4)cc3)n2)C1`, the IC50 in data set [1] was found to be 0.6 nM; in [2] it was 6.1 nM.

Take `C=CC(=O)N[C@H]1CCN(c2ccc(C(N)=O)c(NC3CCCCC3)n2)C1`: in [1], the IC50 was above 6000 nM.

For `NC(=O)c1ccc(NC2CCCCC2)nc1`, in data set [7], the inhibition was found to be 71%. Further, the IC50 in data set [1] is above 6000 nM.

For the compound `C=CC(=O)N[C@H]1CCN(c2ccc(C(N)=O)c(Nc3ccc(C(=O)N4CCOCC4)cc3)n2)C1`, in data set [1], the IC50 turned out to be 1.5 nM.

`C=CC(=O)N[C@@H]1CCN(c2ccc(C(N)=O)c(Nc3ccc(C(=O)N4CCOCC4)cc3)n2)C1`: the 50% inhibitory concentration (IC50) in data set [1] turned out to be 16.2 nM.

As to `C=CC(=O)N[C@H]1CCN(c2ccc(C(N)=O)c(Nc3ccc(Oc4ccccc4)cc3)n2)C1`, in [1], the IC50 was determined as 11 nM.

For orientation: IC50 means the point on the concentration scale where inhibition reaches its midpoint. The Papp A→B is the apparent permeability from the apical to the basolateral side of a cell layer. Lower therefore signals slow passage. As usually defined, the efflux ratio is the permeability from basolateral to apical divided by that in the opposite direction, in the common usage. A word on the half-life: it is the time needed for the level to fall by half in the phase considered. As usually defined, the AUC is concentration integrated over time. Read a high AUC as more exposure. The inhibition is the change of the read-out against control, counted positive when it falls.
